Experimental data taken from patent publication US9676796B2, “Tricyclic benzoxaborole compound, preparation method and use thereof” (DONG-A ST CO., LTD., priority 2013, dated 2017).
Values after ≈ are worked out from the molar mass of the structure shown.

How the values were obtained:
C. freundii = test: Antibacterial activity in vitro, agar plate dilution MIC; type: cell-based; details: Citrobacter freundii; clinical isolate, Mueller-Hinton agar dilution
Procedure: (§1) The antibacterial activity of the novel derivatives prepared by EXAMPLE 1 to 5 was evaluated in vitro by agar plate dilution method using Mueller-Hinton agar according to the NCCLS (National Committee for Clinical Laboratory Standards. 2000. Methods for dilution antimicrobial susceptibility tests for bacteria that grow aerobically. Approved standard, NCCLS document M7-A5, 5th ed, vol 20, no. 2. National Committee for Clinical Laboratory Standards, Wayne, Pa.). The test strains were clinical isolates from patients in general hospital in Korea from 2010 to 2013. The antibacterial activity was examined against important gram-negative bacteria including carbapenem-resistant Acinetobacter baumannii (A. baumannii), carbapenem-resistant Pseudomonas aeruginosa (P. aeruginosa), Escherichia coli (E. coli), and Klebsiella pneumonia (K. pneumonia) and was expressed as minimum inhibitory concentrations (MIC, μg/ml) in table 1.
(§2) The antibacterial activity of compounds (in Preparation Examples 1 to 4) and meropenem (MEPM, carbapenem-based antibiotics) were examined according to the same method shown as EXPERIMENTAL EXAMPLE 1.

K. oxytoca = test: as above; type: cell-based; details: Klebsiella oxytoca; clinical isolate, Mueller-Hinton agar dilution
Procedure: as §1, §2

M. morganii = test: as above; type: cell-based; details: Morganella morganii; clinical isolate, Mueller-Hinton agar dilution
Procedure: as §1, §2

P. mirabilis = test: as above; type: cell-based; details: Proteus mirabilis; clinical isolate, Mueller-Hinton agar dilution
Procedure: as §1, §2

P. vulgaris = test: as above; type: cell-based; details: Proteus vulgaris; clinical isolate, Mueller-Hinton agar dilution
Procedure: as §1, §2

E. cloacae = test: as above; type: cell-based; details: Enterobacter cloacae; clinical isolate, Mueller-Hinton agar dilution
Procedure: as §1, §2

[1] = tested on: Escherichia coli (E. coli); test: as above; type: cell-based; details: clinical isolate, Mueller-Hinton agar dilution
Procedure: as §1, §2

[2] = tested on: Klebsiella pneumoniae (K. pneumoniae); test: as above; type: cell-based; details: clinical isolate, Mueller-Hinton agar dilution
Procedure: as §1, §2

[3] = tested on: carbapenem-resistant Acinetobacter baumannii (A. baumannii); test: as above; type: cell-based; details: carbapenem-resistant clinical isolate, Mueller-Hinton agar dilution
Procedure: as §1, §2

[4] = tested on: carbapenem-resistant Pseudomonas aeruginosa (P. aeruginosa); test: as above; type: cell-based; details: carbapenem-resistant clinical isolate, Mueller-Hinton agar dilution
Procedure: as §1, §2

[5] = tested on: Carbapenem-resistant Acinetobacter baumannii BAA-1605; test: Antibacterial activity in animal infection model (mouse systemic infection); type: in vivo; details: for ED50: Acinetobacter baumannii, BAA1605, read-out: ED50 (dose needed for the 50 percentage survival rate); for ED50 times as low as ED50 value of Compound C: mouse systemic infection, A. baumannii BAA-1605, oral
Procedure: Antibacterial activity of the compounds from the present invention was examined in vivo according to the method described in S. Choi et al (Antimicrob. Agents Chemother 56 (9) 4713-4717. 2012).
Carbapenem-resistant Acinetobacter baumannii BAA-1605 was used as test strain and the test strain was intraperitoneally injected into mouse to cause the systemic infection. After 1 hour of infection, the compounds of EXAMPLEs 1, 2, 3, 5 and the control compounds were administrated orally to the mice.

E. aerogenes = test: Antibacterial activity in vitro, agar plate dilution MIC; type: cell-based, Enterobacter aerogenes; details: Klebsiella aerogenes; clinical isolate, Mueller-Hinton agar dilution
Procedure: as §1, §2

N. gonorrhoeae = test: as above; type: cell-based; details: Neisseria gonorrhoeae; clinical isolate, Mueller-Hinton agar dilution
S. marcescens = test: as above; type: cell-based; details: Serratia marcescens; clinical isolate, Mueller-Hinton agar dilution
Procedure: as §1

| SMILES | MIC (C. freundii) [µg/mL] | MIC (K. oxytoca) [µg/mL] | MIC (M. morganii) [µg/mL] | MIC (P. mirabilis) [µg/mL] | MIC (P. vulgaris) [µg/mL] | MIC (E. cloacae) [µg/mL] | MIC [1] [µg/mL] | MIC [2] [µg/mL] | MIC [3] [µg/mL] | MIC [4] [µg/mL] | ED50 [5] [mg/kg] | MIC (E. aerogenes) [µg/mL] | ED50 times as low as ED50 value of Compound C [5] [times] | MIC (N. gonorrhoeae) [µg/mL] | MIC (S. marcescens) [µg/mL] |
| --- | --- | --- | --- | --- | --- | --- | --- | --- | --- | --- | --- | --- | --- | --- | --- |
| Cl.NCC1OB2OCCOc3cccc1c32 (centres unmarked) [Compound A, (7,8-dihydro-2H-1,6,9-trioxa-9a-borabenzo[cd]azulen-2-yl)methanamine, reference compound] | 1 | 2 | 2 | 8 | 32 | 2 | 2 | 4 | > 128 | 8 | > 20 | 2 |  |  |  |
| CC1COc2cccc3c2B(O1)OC3CN.Cl (centres unmarked) [Compound B, (8-methyl-7,8-dihydro-2H-1,6,9-trioxa-9a-borabenzo[cd]azulen-2-yl)methanamine hydrochloride, reference compound] | 1 | 2 | 4 | 8 | 16 | 2 | 2 | 4 | 8 | 64 | > 20 | 2 |  |  |  |
| Cl.NC[C@H]1OB2O[C@H](CO)COc3cccc1c32 [Compound C, ((2S,8R)-2-(aminomethyl)-7,8-dihydro-2H-1,6,9-trioxa-9a-borabenzo[cd]azulen-8-yl)methanol hydrochloride, reference compound] | 2 | 2 | 2 | 8 | 8 | 2 | 2 | 2 | 4 | 8 | 9.07 | 4 |  |  |  |
| CC1COB2OC(CN)c3cccc(c32)O1.Cl (centres unmarked) [EXAMPLE 1, (7-methyl-7,8-dihydro-2H-1,6,9-trioxa-9a-borabenzo[cd]azulen-2-yl)methanamine hydrochloride] | 1 | 2 | 2 | 2 | 4 | 2 | 2 | 2 | 4 | 32 | 1.75 | 4 | 5.18 | 2 | 4 |
| CC1COB2O[C@H](CN)c3cccc(c32)O1.Cl (stereo partly drawn) [EXAMPLE 2, ((2S)-7-methyl-7,8-dihydro-2H-1,6,9-trioxa-9a-borabenzo[cd]azulen-2-yl)methanamine hydrochloride] | 1 | 2 | 1 | 2 | 2 | 1 | 1 | 2 | 2 | 8 | 1.36 | 2 | 6.69 | 1 | 4 |
| C[C@@H]1COB2O[C@H](CN)c3cccc(c32)O1.Cl [EXAMPLE 3, ((2S,7R)-7-methyl-7,8-dihydro-2H-1,6,9-trioxa-9a-borabenzo[cd]azulen-2-yl)methanamine hydrochloride] | 1 | 1 | 1 | 2 | 2 | 1 | 1 | 2 | 1 | 16 | 0.909 | 2 | 9.98 | 0.5 | 4 |
| C[C@H]1COB2O[C@H](CN)c3cccc(c32)O1.Cl [EXAMPLE 5, ((2S, 7S)-7-methyl-7,8-dihydro-2H-1,6,9-trioxa-9a-borabenzo[cd]azulen-2-yl)methanamine hydrochloride] | 1 | 2 | 0.5 | 2 | 2 | 1 | 1 | 2 | 4 | 8 | 1.36 | 4 | 6.69 | 2 | 4 |
| C[C@@H](O)[C@H]1C(=O)N2C(C(=O)O)=C(S[C@@H]3CN[C@H](C(=O)N(C)C)C3)[C@H](C)[C@H]12 [MEPM, meropenem, reference compound] | < 0.0313 | < 0.0313 | 0.125 (≈ 0.326 µM) | 0.0625 (≈ 0.163 µM) | 0.0625 (≈ 0.163 µM) | < 0.0313 | < 0.0313 | < 0.0313 | 32 (≈ 83.4 µM) | 32 (≈ 83.4 µM) |  | < 0.0313 |  |  |  |
| C[C@@H]1COB2O[C@H](CN)c3cccc(c32)O1 [compound 4, ((2S,7R)-7-methyl-7,8-dihydro-2H-1,6,9-trioxa-9a-borabenzo[cd]azulen-2-yl) methanamine] | 0.5 (≈ 2.28 µM) | 1 (≈ 4.57 µM) | 0.5 (≈ 2.28 µM) | 1 (≈ 4.57 µM) | 1 (≈ 4.57 µM) | 1 (≈ 4.57 µM) | 1 (≈ 4.57 µM) | 1 (≈ 4.57 µM) | 1 (≈ 4.57 µM) | 8 (≈ 36.5 µM) |  | 1 (≈ 4.57 µM) |  | 0.5 (≈ 2.28 µM) | 2 (≈ 9.13 µM) |
| Cl.NCC1OB2OCC(CO)Oc3cccc1c32 (centres unmarked) [compound D, (2-(aminomethyl)-7,8-dihydro-2H-1,6,9-trioxa-9a-borabenzo[cd]azulen-7-yl)methanol hydrochloride, reference compound] | 4 | 8 | 8 | 16 | 16 | 8 | 8 | 16 | 16 | 64 |  | 8 |  |  |  |
